For assay [1], the system named is FECD corneal endothelium attached to the Descemet membrane. Description: Endothelial cell apoptosis (TUNEL) in post-keratoplasty FECD specimens, +/- tBHP. Format: cell-based, human. The procedure:
Immunocytochemistry. […] After permeabilization, corneas were incubated with goat anti-8-OHdG (1:200; Millipore) followed by incubation with appropriate secondary antibodies. Nuclei were stained with TO-PRO-3 iodide (Molecular Probes). Corneal endothelial tight junctions were detected by rabbit anti-zonula occludens-1 (anti-ZO-1) antibody (1:300; Invitrogen).
An Nrf2-controlled pathway is affected during the endothelial cell loss from surgery and from dystrophic degeneration. […] Nrf2 is a transcription factor that causes a coordinated upregulation of multiple antioxidants, such as glutathione transferases, glutathione peroxidases, peroxiredoxins, thioredoxins, NADH(P)H hydrogenases, heme-oxygenases, glutamate- cysteine ligases. Sulforaphane (SF) and D3T upregulate Nrf2 on a protein level and enhance cellular antioxidant defense. Thus, studies were carried out to investigate the effect of SF on endothelial cell apoptosis with and without pro-oxidants. Post-keratoplasty FECD specimens, containing corneal endothelium attached to the Descemet membrane, were exposed to four experimental conditions: +/− tBHP with is a long acting pro-oxidant and +/−SF. The rate of endothelial cell apoptosis (as detected by TUNEL) in FECD endothelium was 31% and it decreased to 13% (p=1.5E-06) with SF treatment. Under pro-oxidant conditions, SF decreased endothelial cell apoptosis from 60% to 33% (p=0.016) (FIG. 11A). Similarly, D3T diminished endothelial cell apoptosis by decreasing the number of apoptotic cells from 52% to 30% (p<0.05) (FIG. 11B).

Assay [2] relates to HCECi. The note with it: H2O2 200 μM, 2 hours; P=0.001. The procedure:
Human Corneal Endothelial Cell Culture. […] The culture medium of subconfluent cells was replaced with serum-free medium (OptiMEM-1; Invitrogen-Life Technologies) alone or supplemented with H2O2 (200 μM) and incubated for 2 hours at 37° C. At the end of the treatment, cell viability was evaluated by trypan blue staining.

For assay [3], the system named is Nrf2 mRNA expression in HCECi. The note with it: H2O2 200 μM, 2 hours; normalized to B2M; non-treated control 1.00±0.05; P=0.004. As for the experimental part:
Human Corneal Endothelial Cell Culture. […] The culture medium of subconfluent cells was replaced with serum-free medium (OptiMEM-1; Invitrogen-Life Technologies) alone or supplemented with H2O2 (200 μM) and incubated for 2 hours at 37° C. At the end of the treatment, cell viability was evaluated by trypan blue staining. Real-time PCR. […] Reverse transcription was performed using a commercially available kit (Promega). […] Real-time PCR reactions were run on an ABI Prism 7500 HT Sequence Detection System (Applied Biosystems). For data analysis, the comparative Ct method was performed.

For assay [4], the system named is mouse corneal endothelium. The settings on record: 1 μM. As for the experimental part:
(§1) Corneal Whole Mount Assays. Eight (8-) to 12-wk-old male BALB/c and C57BL/6 (from Taconic Farms, Germantown, NY and our own breeding facility) were used for corneal whole mount assays. All protocols were approved by the Schepens Eye Research Institute Animal Care and Use Committee, and all animals were treated according to the Association for Research in Vision and Ophthalmology Statement for the Use of Animals in Ophthalmic and Vision Research. […] Control corneal buttons were incubated in DMEM only at 37° C. for 0-12 hours. Immunocytochemistry. Immunocytochemistry was performed as previously described.17 Normal, FECD, and PBK corneas were incubated in culture medium containing 100 nM MitoTracker Red CMXRos (Molecular Probes) for 30 minutes at 37° C., then fixed with 3.7% formaldehyde. […] Millipore) followed by incubation with appropriate secondary antibodies. Nuclei were stained with TO-[…] iodide (Molecular Probes). […] Invitrogen). […] Bioscience), propidium iodide (1:200; Invitrogen), and TUNEL assay (In Situ Cell Death Detection Kit, Roche Diagnostics GmbH) according to the manufacturers' instructions. Digital images were obtained using a spectral photometric confocal microscope ([…][…] with LCS 1.3.1 software).

The test system of assay [5] is mouse corneal endothelium. The settings on record: 30 minutes. As for the experimental part: as §1, with “software). Analysis of CE Cell Morphology. […] (variation in cell size) and pleomorphism (variation in cell shape) were then calculated.” for “software).”

Read-outs that look alike come from different tables or passages of the source.

Consider `S=c1ccss1` [D3T, 3H-1,2-dithiole-3-thione], for which, in assay [1] (FECD, absence of oxidative stress, 52% without D3T, p<0.05), the “number of apoptotic cells with D3T” value stood at 30%. Besides, in assay [1] (absence of oxidative stress), the “effect on percentage of apoptotic cells in FECD” value was “decreased the percentage of apoptotic cells”.
Take `OO` [H2O2, hydrogen peroxide]: in assay [2], the “level of 8-OHdG relative to control cells” value was 2 fold. The “relative expression of Nrf2 mRNA (mean±SEM)” value in assay [3] amounted to 0.66±0.02. Further, the “mitochondrial staining (MitoTracker CMXRos)” value was “decline in the mitochondrial density” in assay [4] (1-hour treatment); “no detectable mitochondrial staining” in assay [4] (2-hour treatment, P<0.01); “significant decrease” in assay [4] (90 minutes, P<0.01). Moreover, the “CE cells with early apoptosis (annexin-V-positive, PI-negative)” value in assay [4] (60 minutes, P<0.01) was “Approximately 5%”; in assay [4] (90 minutes, P<0.01), about 11%. The “late apoptosis (annexin-V-positive, PI-positive)” value in assay [4] (120 minutes, P<0.01) is on record as “identified”. The “CE cell density as measured by ZO-1 labeling” value in assay [5] (0-100 μM) is listed as “no statistically significant effect”. Besides, the “percent of hexagonal cells (pleomorphism)” value in assay [5] (100 μM, P=0.007) is “declined significantly”.
For the molecule `C[S+]([O-])CCCCN=C=S` (stereo not shown) [SF, sulforaphane], the “rate of endothelial cell apoptosis (as detected by TUNEL) with SF treatment” value in assay [1] (FECD endothelium, without pro-oxidant (tBHP-), 31% without SF, p=1.5E-06) was found to be 13%. The “endothelial cell apoptosis with SF under pro-oxidant conditions” value in assay [1] (FECD specimens exposed to tBHP, 60% without SF, p=0.016) came to 33%. For the same molecule, the “decrease of endothelial cell apoptosis in FECD” value in assay [1] (SF treatment, without pro-oxidant conditions [tBHP-], p=1.57E-06) is 58%. Moreover, the “decrease of endothelial cell apoptosis” value in assay [1] (specimens exposed to pro-oxidants or tBHP, p=0.016) is at most 45%.

(Values after US20160175380A1, “Compositions and Methods of Treatment of Corneal Endothelium Disorders” (The Schepens Eye Research Institute, Inc., priority 2010, published 2016).)
